For assay [1], the target named is T1, 5-HT1A receptors (Homo sapiens, UniProt P08908).
T1 sequence (P08908 1-422): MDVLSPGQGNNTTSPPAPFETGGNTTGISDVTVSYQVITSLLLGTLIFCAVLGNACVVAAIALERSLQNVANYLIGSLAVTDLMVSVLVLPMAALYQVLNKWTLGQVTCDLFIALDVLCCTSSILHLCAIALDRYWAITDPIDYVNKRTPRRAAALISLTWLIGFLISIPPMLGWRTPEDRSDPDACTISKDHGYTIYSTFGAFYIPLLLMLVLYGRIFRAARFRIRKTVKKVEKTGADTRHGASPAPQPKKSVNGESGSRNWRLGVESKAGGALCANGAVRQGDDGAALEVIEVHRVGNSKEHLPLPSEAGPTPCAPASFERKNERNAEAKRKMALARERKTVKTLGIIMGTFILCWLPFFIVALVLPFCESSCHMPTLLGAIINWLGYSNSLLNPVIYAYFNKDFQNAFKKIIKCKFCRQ
Nature of the assay: In vitro affinity test for 5-HT1A receptors. To be noted: conventional binding technique, read-out: Ki with respect to 5-HT1A receptors. The protocol:
(§1) EXAMPLE 8: In vitro affinity test for endazoline, α1 and α2 and 5-HT receptors
(§2) The in vitro affinity tests for endazoline receptors were carried out according to a technique described by A. Parini et al. (Biochem. and Biophys. Res. Comm. 147(3), 1055, 1987), and according to conventional binding techniques for the other receptors.

In assay [2] the target is 5 HT2 receptors (Homo sapiens, UniProt P28223). Nature of the assay: In vitro affinity test for 5-HT2 receptors. To be noted: conventional binding technique, read-out: Ki with respect to 5 HT2 receptors. As to the method: as §1, §2
Assay [3] has as its target 5-HT1B receptors (Rattus norvegicus, UniProt P28564). Nature of the assay: In vitro affinity test for 5-HT1B receptors. As to conditions: conventional binding technique, read-out: Ki with respect to 5-HT1B receptors. As to the method:
as §1, §2

Assay [4] deals with T2, 5-HT3 receptors (Homo sapiens, UniProt P46098).
T2 sequence (P46098 24-478): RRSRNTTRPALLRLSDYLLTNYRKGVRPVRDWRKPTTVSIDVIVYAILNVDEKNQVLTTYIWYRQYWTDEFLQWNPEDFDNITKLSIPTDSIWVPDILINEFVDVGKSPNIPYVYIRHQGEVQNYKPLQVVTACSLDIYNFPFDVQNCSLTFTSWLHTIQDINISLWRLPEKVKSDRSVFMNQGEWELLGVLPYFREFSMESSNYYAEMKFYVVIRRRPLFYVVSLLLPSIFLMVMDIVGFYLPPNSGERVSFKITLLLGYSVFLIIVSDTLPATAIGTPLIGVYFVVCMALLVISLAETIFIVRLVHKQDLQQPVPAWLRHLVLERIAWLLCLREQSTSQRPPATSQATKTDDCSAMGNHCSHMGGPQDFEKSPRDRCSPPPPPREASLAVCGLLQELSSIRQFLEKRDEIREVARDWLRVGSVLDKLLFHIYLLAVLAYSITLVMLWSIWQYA
Nature of the assay: In vitro affinity test for 5-HT3 receptors. To be noted: conventional binding technique, read-out: Ki with respect to 5-HT3 receptors. As to the method:
as §1, §2

We go through one compound from patent publication US5296498A, “Guanidine compounds” (Adir et Compagnie, priority 1990, dated 1994).

As usually defined, the Ki is the dissociation constant of the complex between target and ligand, obtained from inhibition or displacement.

Where a name gives a salt, the structure may show the parent alone.

5 HT2 receptors, sequence (P28223 whole entry): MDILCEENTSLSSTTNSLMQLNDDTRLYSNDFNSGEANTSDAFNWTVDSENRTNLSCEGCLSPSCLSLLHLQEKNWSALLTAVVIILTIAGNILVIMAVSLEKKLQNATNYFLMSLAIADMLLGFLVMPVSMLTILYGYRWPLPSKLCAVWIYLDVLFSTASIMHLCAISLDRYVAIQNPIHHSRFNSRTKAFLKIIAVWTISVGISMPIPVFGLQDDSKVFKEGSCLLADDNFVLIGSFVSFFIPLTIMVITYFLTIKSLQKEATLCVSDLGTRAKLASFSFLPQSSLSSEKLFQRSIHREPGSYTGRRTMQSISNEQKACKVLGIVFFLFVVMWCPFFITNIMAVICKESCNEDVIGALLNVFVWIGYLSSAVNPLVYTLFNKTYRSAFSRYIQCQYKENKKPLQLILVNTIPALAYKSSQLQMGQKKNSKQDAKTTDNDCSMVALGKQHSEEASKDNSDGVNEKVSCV
5-HT1B receptors, sequence (P28564 whole entry): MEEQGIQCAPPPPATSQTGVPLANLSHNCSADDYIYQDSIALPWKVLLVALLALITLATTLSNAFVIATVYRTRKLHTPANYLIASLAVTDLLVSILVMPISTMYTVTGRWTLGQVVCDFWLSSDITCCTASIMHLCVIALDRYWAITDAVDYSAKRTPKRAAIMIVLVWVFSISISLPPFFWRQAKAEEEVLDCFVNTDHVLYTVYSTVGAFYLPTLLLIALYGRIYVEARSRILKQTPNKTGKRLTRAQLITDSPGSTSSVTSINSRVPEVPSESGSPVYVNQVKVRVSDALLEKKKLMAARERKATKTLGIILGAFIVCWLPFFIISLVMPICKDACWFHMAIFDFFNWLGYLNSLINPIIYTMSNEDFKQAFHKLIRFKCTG

Consider `N=C(N)NN=CC(C1CC1)C1CC1` [Example 2, (2,2-Dicyclopropylethylidene)aminoguanidine hydrochloride], for which the Ki in assay [1] was ~10 µM; in assay [2], ~20 µM; in assay [3], ~100 µM; in assay [4], ~2 µM.
